Measured values published in PubChem BioAssay (NCI).
Several values for one entry are separate records, joined by “and”; a condition that tells them apart may be missing. Identical values can stand only once.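 Tested at 5 concentrations; 48 h exposure; 96-well plates; endpoints linearly interpolated, else capped at highest concentration. Here, GI50 denotes the concentration required for 50% inhibition of growth. At the TGI there is no net growth.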

Tests used:
Experiment in all cases: growth of human tumour cells (NCI), 48 h
CCRF-CEM leukemia = test system: CCRF-CEM leukemia
COLO 205 colon = test system: COLO 205 colon
K-562 leukemia = test system: K-562 leukemia
MALME-3M melanoma = test system: MALME-3M melanoma
MOLT-4 leukemia = test system: MOLT-4 leukemia
NCI-H226 lung = test system: NCI-H226 lung
OVCAR-4 ovarian = test system: OVCAR-4 ovarian
SF-539 CNS = test system: SF-539 CNS
SR leukemia = test system: SR leukemia
U251 CNS = test system: U251 CNS

SMILES	GI50 (CCRF-CEM leukemia)	TGI (CCRF-CEM leukemia)	GI50 (COLO 205 colon)	TGI (COLO 205 colon)	GI50 (K-562 leukemia)	TGI (K-562 leukemia)	GI50 (MALME-3M melanoma)	TGI (MALME-3M melanoma)	GI50 (MOLT-4 leukemia)	TGI (MOLT-4 leukemia)	GI50 (NCI-H226 lung)	TGI (NCI-H226 lung)	GI50 (OVCAR-4 ovarian)	TGI (OVCAR-4 ovarian)	GI50 (SF-539 CNS)	TGI (SF-539 CNS)	GI50 (SR leukemia)	TGI (SR leukemia)	GI50 (U251 CNS)	TGI (U251 CNS)
CO[C@H](C(=O)[C@@H](O)[C@@H](C)O)[C@@H]1Cc2cc3cc(O[C@H]4C[C@@H](O[C@H]5C[C@@H](O)[C@H](O)C(C)O5)[C@H](O)C(C)O4)c(C)c(O)c3c(O)c2C(=O)[C@H]1O[C@H]1C[C@@H](O[C@H]2C[C@@H](O[C@H]3C[C@@H](OC)[C@H](O)C(C)O3)[C@@H](O)C(C)O2)C(O)(O)C(C)O1 (stereo partly specified)	0.138 µM	> 25 µM	0.0833 µM	0.89 µM	0.19 µM	> 25 µM	0.0532 µM	2.03 µM	0.57 µM	> 25 µM	0.0545 µM	0.461 µM	0.404 µM	> 11.7 µM	0.0938 µM	1.68 µM	0.0932 µM	> 25 µM	0.0329 µM	> 25 µM
CC(=O)C1=C(O)C=C2Oc3c(C(=O)/C=C/c4cc(C(F)(F)F)cc(C(F)(F)F)c4)c(O)c(C)c(O)c3[C@]2(C)C1=O	0.487 µM	3.82 µM	0.527 µM	1.75 µM	0.498 µM	15 µM	0.513 µM	2.42 µM	0.437 µM	15 µM	2.34 µM	5.15 µM	0.815 µM	11.3 µM	1.4 µM	4.53 µM	0.44 µM	3.32 µM	0.532 µM	1.7 µM
CNC(=O)c1cc(COc2nnc(Nc3ccc(Cl)cc3)c3ccoc23)ccn1	26.9 µM and > 10 µM	> 79.5 µM	20.6 µM and > 10 µM	> 79 µM	19.6 µM and > 10 µM	72 µM and > 10 µM	4.11 µM and > 10 µM	17.2 µM and > 10 µM	22.6 µM and > 10 µM	> 81.3 µM	3.01 µM and 8.73 µM	13.1 µM and > 10 µM	2.87 µM and 3.16 µM	11.7 µM and > 10 µM	1.53 µM and 1.89 µM	5.86 µM and > 10 µM	20.1 µM and > 10 µM	83.1 µM and > 10 µM	5.34 µM and 4.26 µM	16.8 µM and > 10 µM
CCOc1ccccc1NC(=O)CCC(=O)OC		> 66.7 µM		> 100 µM		> 87.8 µM		> 100 µM		> 100 µM		> 100 µM		> 100 µM				> 100 µM		> 71.1 µM
N#Cc1cc(C#N)c(Cl)nc1N		> 10 µM		> 10 µM		> 10 µM		> 10 µM		> 10 µM		> 10 µM		> 10 µM		> 10 µM		> 10 µM		> 10 µM
C(=Nc1ccccc1)C1CCCC[N-]1.C(=Nc1ccccc1)C1CCCC[N-]1.[Cu+2].[O-][Cl+3]([O-])([O-])O (stereo unspecified)	6.3 µM	36.6 µM	12.8 µM	> 52.2 µM	0.745 µM	14.4 µM	14 µM	33.9 µM	4.16 µM	11.7 µM	21.6 µM	50 µM	26 µM	84.4 µM	17.7 µM	42.3 µM	1.64 µM	6.12 µM	10.7 µM	30.4 µM
COc1cccc2c1C(=O)c1c(O)c3c(c(O)c1C2=O)CC(O)(C(C)=O)CC3OC1CC(N)C(O)C(C)O1 (stereo unspecified)		0.324 µg/mL	0.114 µg/mL	0.334 µg/mL	0.0156 µg/mL	0.922 µg/mL	0.0663 µg/mL	0.356 µg/mL		0.019 µg/mL		0.155 µg/mL	0.0742 µg/mL	0.692 µg/mL		0.113 µg/mL		0.152 µg/mL	0.0151 µg/mL	1.84 µg/mL
Cc1nc2ccc(CN(C)c3ccc(C(=O)N[C@@H](CCC(=O)O)C(=O)O)s3)cc2c(=O)[nH]1	0.027 µM	> 100 µM		> 100 µM		> 100 µM		> 100 µM		> 100 µM		> 100 µM		> 100 µM				> 100 µM		> 100 µM
CN(C)c1ccc2c(c1)C(=O)N(OS(=O)(=O)c1ccc([N+](=O)[O-])cc1)C2=O		63.1 µM		54.6 µM		> 100 µM		> 100 µM				> 100 µM		31.5 µM		33.8 µM		63.8 µM		35.1 µM
Nc1nc(CCC(=O)Nc2cccc(C(F)(F)F)c2)cc(-c2cccc3ccccc23)n1		> 100 µM		> 100 µM		> 100 µM		> 100 µM		> 100 µM		> 100 µM		> 100 µM		> 100 µM		> 100 µM		> 100 µM
Cc1ccc(C(=O)N(CCCN)[C@@H](c2nc3cc(Cl)ccc3c(=O)n2Cc2ccccc2)C(C)C)cc1	< 0.01 µM	3.3 µM and 1.46 µM	< 0.01 µM	1.1 µM	< 0.01 µM	1.67 µM and 1.23 µM	0.0303 µM	2.39 µM	< 0.01 µM	3.87 µM and 1.45 µM	0.325 µM	2.25 µM and 2.5 µM	1.28 µM and 1.13 µM	3.54 µM and 2.46 µM	< 0.01 µM	1.38 µM and 0.654 µM	< 0.01 µM	1.63 µM and 1.44 µM	< 0.01 µM	1.19 µM and 1.53 µM
Cc1ccc(NCCCN2CCN(CCCNc3ccc(C)c4sc5ccccc5c(=O)c34)CC2)c2c(=O)c3ccccc3sc12		> 100 µM		> 100 µM		> 100 µM		> 100 µM		> 100 µM		> 100 µM		> 100 µM		> 100 µM		> 100 µM		> 100 µM
CN1CCc2cc3c(cc2C1O)OCO3 (stereo unspecified)	10.1 µM and > 100 µM	> 100 µM	13.5 µM and > 100 µM	31.8 µM and > 100 µM		> 100 µM			23.4 µM and > 100 µM	81.6 µM and > 100 µM				13.7 µM and > 100 µM	12.8 µM and > 100 µM	29.4 µM and > 100 µM		> 100 µM		22.9 µM and > 100 µM
Cc1nc2sccn2c1/C=C1/C(=O)Nc2ccccc21	5.01 µM	> 100 µM	3.11 µM	> 45.9 µM	> 100 µM	> 100 µM	5.37 µM	> 100 µM	4.83 µM	> 31.6 µM	23.9 µM	> 100 µM	> 29.6 µM	> 100 µM	3.14 µM	17.8 µM	1.26 µM	5.44 µM	4.96 µM	> 74.3 µM
O=C(Nc1ccc(Cl)cc1Cl)c1ccc(NC2=C(Cl)C(=O)N(Cc3ccccc3)C2=O)cc1	1.99 µM	6.84 µM	16.3 µM	38.8 µM	6.24 µM	18.4 µM			3.57 µM	11.3 µM	20.5 µM	45.8 µM			18.9 µM	33.1 µM	1.35 µM	3.12 µM	12.2 µM	24.5 µM
